Measured values as given in US20120076871A1, “METHOD FOR DETECTING, QUANTIFYING AND MAPPING DAMAGE AND/OR REPAIR OF DNA STRANDS” (GENOMIC VISION SA, priority 2010, published 2012).

What was measured:
[1] = test system: testicular cancer; details: strongly reduced DNA repair capacity; cited from earlier work
[2] = test system: non-small cell lung cancer (NSCLC); details: higher levels of DNA repair capacity; cited from earlier work
[3] = test system: human DNA extracted from cells; experiment: Relative fragmentation-induced Profile Deviation: Fpg treatment and Molecular Combing of DNA from cells exposed to H2O2; assay type: cell-based
Method: Construction of a DNA length reference profile of a healthy cellular population and comparison of the profile obtained from the same population after exposure to a genotoxic agent is performed. High resolution DNA length reference profiles are constructed by measuring the size of thousands of DNA molecules uniformly stretched on a combed slide.
In the case of damage generated at high frequency along the genome (for instance SSB, abasic sites, methylated, alkylated, oxidated bases, photoproducts), the conversion of most of the targeted lesions into DSB generates theoretically as much new DNA extremities as much lesions were present on the molecules. When comparing the length distribution profile of the damaged sample with the undamaged reference, a Profile Deviation (PD) associated to a specific damage appears. The amount of lesions generated by the genotoxic compound can then be estimated directly from the PD. […]
For direct visualization of stretched DNA, cover-slips were mounted with 20 μL of a Block-Aid (Invitrogen, ref. B-10710)-YOYO-1 iodide (Molecular Probes, code Y3601) mixture (10000:1 v/v) in order to counter-stain all stretched molecules. […] Length of the YOYO-1-stained DNA fibers were measured with internal software GVlab v0.4.6 (Genomic Vision S.A., Paris, France).

Row | SMILES | survival rate after cisplatin treatment [1] [%] | survival after cisplatin treatment [2] | decay constants τ of exponential fit y=Ae^-x/τ of DNA size distribution as a function of H2O2 dose ([3]; 1, 5, 10 and 20 mM H2O2, 10 min, control excluded from linear fit) | length of stretched DNA strands (clustered oxidative damage) after Fpg treatment ([3]; cells incubated 10 min with 10 and 20 mM H2O2, compared to control sample)
1 | N.N.[Cl][Pt][Cl] [cisplatin] | 95 | low survival |  | 
2 | OO [H2O2] |  |  | decrease linearly | much shorter than in the control sample
